A value given as a limit tells only on which side of the number the result lay.

T1 sequence (P01116 1-188 isoform P01116-2 G12C): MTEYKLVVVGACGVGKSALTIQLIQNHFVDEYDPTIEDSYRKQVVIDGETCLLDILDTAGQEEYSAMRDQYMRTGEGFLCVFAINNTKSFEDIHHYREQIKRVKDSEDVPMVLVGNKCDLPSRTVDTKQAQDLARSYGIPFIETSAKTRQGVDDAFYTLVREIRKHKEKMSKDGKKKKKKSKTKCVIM

This assay concerns the target T1, KRasG12C (Homo sapiens, UniProt P01116, G12C).
T1 construct: biotin (biotinylated); made in house
The assay is described as follows: KRasG12C functional assay (HTRF nucleotide exchange / Raf RBD binding). The class given is biochemical. The note with it: GDP loaded biotinylated KRasG12C, samples incubated 4 hrs, FRET readout; single experiment or average of two or more. As to the method:
KRasG12C Functional Assay
All enzyme and substrate solutions were prepared in assay buffer containing 20 mM HEPES (pH 7.5), 5 mM MgCl2, 150 mM NaCl, and 0.01% Tween 20. […] In a separate mix 20 nM GST-Raf Ras binding domain (GST-Raf RBD, purified in house) and 4 μg/ml anti-GST XL665 antibody (Cisbio) was prepared in assay buffer containing 50 mM Potassium Fluoride and 0.05 mg/ml BSA and equilibrated for 4 hours before adding 0.6 μM Guanosine 5′-[γ-thio]triphosphate (GTPγS, Sigma) and 0.08 μM SOS (purified in house). 5 μl of the GST-RAF RBD mix was then dispensed into each well of the assay plate. […] This is detected simultaneously via the specific binding interaction between active GTPγS KRas^G12C with GST-Raf RBD which brings the europium and XL665 into close proximity enabling an increased FRET signal to be detected on a Pherastar (BMG) plate reader equipped with the HTRF filter module. […] IC50 values were calculated from normalised dose-response response FRET data curve fitted in Genedata screener (Basel, Switzerland).
Background: Time-resolved FRET reads energy transfer from a long-lived donor to a nearby acceptor.
For the compound `C=CC(=O)N1CCN2c3c(cnc4c(F)c(-c5c(O)ccc6ccccc56)c(Cl)cc34)N(C)C(=O)[C@H]2C1` (single isomer, unassigned) [Compound 55], the IC50 – broadly, the concentration that inhibits the measured activity by half – is 5900 nM.

In the case of `C=CC(=O)N1CCN2c3c(cnc4c(F)c(-c5c(O)cccc5F)c(Cl)cc34)NC(=O)[C@H]2C1` (single isomer, unassigned) [Compound 89], the IC50 came to 3600 nM.

For `C#Cc1cc2c3c(cnc2cc1-c1c(C)ccc2[nH]ncc12)OC[C@H]1CN(C(=O)C=C)CCN31` (single isomer, unassigned) [Compound 76], the IC50 turned out to be 931 nM.

Regarding `C[C@@H]1CN2c3c(cnc4c(F)c(-c5c(O)cccc5F)c(Cl)cc34)N(C)C(=O)[C@H]2CN1C(=O)/C=C/CN(C)C` (single isomer, unassigned) [Compound 29], the IC50 worked out at 25 nM.

Regarding `C=CC(=O)N1C[C@@H]2C(=O)N(C)c3cnc4c(F)c(-c5c(C)ccc6[nH]cnc56)c(Cl)cc4c3N2C[C@H]1C` (single isomer, unassigned) [Compound 27], the IC50 was determined as 8800 nM.

With `C[C@@H]1CN2c3c(cnc4c(F)c(-c5c(O)cccc5F)c(Cl)cc34)OC[C@H]2CN1C(=O)/C=C/CN(C)C` (single isomer, unassigned) [Compound 37], the IC50 came out at 21 nM.

As for `C=CC(=O)N1C[C@@H]2C(=O)Nc3cnc4c(F)c(-c5c(O)cccc5F)c(Cl)cc4c3N2C[C@H]1C` (single isomer, unassigned) [Compound 31], the IC50 is 4 nM.

`C=CC(=O)N1C[C@@H]2C(=O)N(C)c3cnc4c(F)c(-c5c(C)ccc6[nH]cnc56)c(Cl)cc4c3N2C[C@H]1C` (single isomer, unassigned) [Compound 28] showed an IC50 of 3 nM.

As for `C=CC(=O)N1CCN2c3c(cnc4c(F)c(-c5c(O)cccc5F)c(F)cc34)N(C)C(=O)[C@H]2C1` [Compound 42, (4aR)-3-Acryloyl-9,11-difluoro-10-(2-fluoro-6-hydroxyphenyl)-6-methyl-2,3,4,4a-tetrahydro-1H-pyrazino[1′,2′:4,5]pyrazino[2,3-c]quinolin-5(6H)-one], the IC50 came out at 77 nM.

As to `C=CC(=O)N1CCN2c3c(cnc4c(F)c(-c5c(O)cccc5Cl)c(Cl)cc34)N(C)C(=O)[C@H]2C1` (single isomer, unassigned) [Compound 52], the IC50 was found to be 14 nM.

For the compound `C=CC(=O)N1CCN2c3c(cnc4cc(-c5c(C)ccc6[nH]ncc56)c(Cl)cc34)OC[C@@H]2C1` (single isomer, unassigned) [Example 5], the IC50 amounted to 5800 nM.

Take `C=CC(=O)N1CCN2c3c(cnc4c(F)c(-c5c(C)ccc6[nH]cnc56)c(Cl)cc34)N(C)C(=O)[C@H]2C1` (single isomer, unassigned) [Compound 26]: the IC50 came to 446 nM.

Regarding `C=CC(=O)N1CCN2c3c(cnc4cc(-c5c(O)cccc5F)c(Cl)cc34)N(C)C(=O)C2(C)C1` (single isomer, unassigned) [Compound 32, 11-Chloro-10-(2-fluoro-6-hydroxyphenyl)-4a,6-dimethyl-3-(prop-2-enoyl)-2,3,4,4a-tetrahydro-1H-pyrazino[1′,2′:4,5]pyrazino[2,3-c]quinolin-5(6H)-one], the IC50 was 2200 nM.

Compound `C=CC(=O)N1CCN2c3c(cnc4cc(-c5c(O)cccc5F)c(Cl)cc34)N(CC)C(=O)[C@H]2C1` [Compound 90, (4aR)-11-Chloro-6-ethyl-10-(2-fluoro-6-hydroxyphenyl)-3-(prop-2-enoyl)-2,3,4,4a-tetrahydro-1H-pyrazino[1′,2′:4,5]pyrazino[2,3-c]quinolin-5(6H)-one] showed an IC50 of 333 nM.

As to `C=CC(=O)N1CCN2c3c(cnc4cc(-c5c(F)ccc6cc[nH]c(=O)c56)c(Cl)cc34)OC[C@H]2C1` (single isomer, unassigned) [Compound 46], the IC50 is 1100 nM.

`C=CC(=O)N1CCN2c3c(cnc4cc(-c5c(O)cccc5F)c(Cl)c(Cl)c34)N(C)C(=O)[C@H]2C1` [Compound 60, (4aR)-11,12-Dichloro-10-(2-fluoro-6-hydroxyphenyl)-6-methyl-3-(prop-2-enoyl)-2,3,4,4a-tetrahydro-1H-pyrazino[1′,2′:4,5]pyrazino[2,3-c]quinolin-5(6H)-one] registered an IC50 of 501 nM.

Compound `C=CC(=O)N1CCN2c3c(cnc4c(F)c(-c5c(O)ccc(F)c5F)c(Cl)cc34)N(C)C(=O)[C@H]2C1` (single isomer, unassigned) [Compound 57] gave an IC50 of 8900 nM.

As to `C=CC(=O)N1CCN2c3c(cnc4c(F)c(-c5c(O)cccc5C(F)F)c(Cl)cc34)N(C)C(=O)[C@H]2C1` (single isomer, unassigned) [Compound 61], the IC50 worked out at 38700 nM.

In turn, `C=CC(=O)N1CCN2c3c(cnc4c(F)c(-c5c(C)ccc6[nH]c(=O)n(C)c56)c(Cl)cc34)OC[C@H]2C1` (single isomer, unassigned) [Compound 84] showed an IC50 of 2400 nM.

Compound `C=CC(=O)N1CCN2c3c(cnc4c(F)c(-c5c(C)ccc6[nH]c(=O)oc56)c(Cl)cc34)OC[C@H]2C1` (single isomer, unassigned) [Compound 47] registered an IC50 of 31 nM.

Consider `C=CC(=O)N1CCN2c3c(cnc4c(C)c(-c5c(O)cccc5F)c(C)cc34)N(C)C(=O)[C@H]2C1` (single isomer, unassigned) [Compound 43], for which the IC50 was greater than 100000 nM.

Take `C=CC(=O)N1CCN2c3c(cnc4cc(-c5c(O)cccc5F)c(Cl)cc34)OC[C@H]2C1` (single isomer, unassigned) [Mixture of 1 & 2]: the IC50 worked out at 211 nM.

On to `C=CC(=O)N1CCN2c3c(cnc4c(F)c(-c5c(C)cccc5O)c(Cl)cc34)N(C)C(=O)[C@H]2C1` (single isomer, unassigned) [Compound 53], for which the IC50 came out at 37600 nM.

Compound `C=CC(=O)N1C[C@@H]2COc3cnc4c(F)c(-c5c(O)cccc5F)c(F)cc4c3N2C[C@H]1C` (single isomer, unassigned) [Compound 64] showed an IC50 of 20 nM.

The compound `C=CC(=O)N1C[C@@H]2COc3cnc4c(F)c(-c5c(O)cccc5F)c(F)cc4c3N2C[C@H]1C` (single isomer, unassigned) [Compound 63] displayed an IC50 of 1900 nM.

`C=CC(=O)N1C[C@@H]2COc3cnc4c(C)c(-c5c(O)cccc5F)c(Cl)cc4c3N2C[C@H]1C` (single isomer, unassigned) [Compound 41] registered an IC50 of 1500 nM.

Regarding `C=CC(=O)N1CCN2c3c(cnc4c(Cl)c(-c5c(O)cccc5F)c(F)cc34)N(C)C(=O)[C@H]2C1` (single isomer, unassigned) [Compound 79], the half-maximal inhibitory concentration (IC50) turned out to be 141 nM.

`C=CC(=O)N1CCN2c3c(cnc4c(F)c(-c5c(O)ccc(F)c5F)c(Cl)cc34)N(C)C(=O)[C@H]2C1` (single isomer, unassigned) [Compound 58] displayed an IC50 of 20 nM.

On to `C=CC(=O)N1CCN2c3c(cnc4cc(-c5c(C)ccc6[nH]c(=O)[nH]c56)c(Cl)cc34)OC[C@H]2C1` (single isomer, unassigned) [Compound 72], for which the IC50 worked out at 8300 nM.

The compound `C=CC(=O)N1CCN2c3c(cnc4cc(-c5c(C)ccc6[nH]ncc56)c(Cl)cc34)N(CCN(C)C)C[C@H]2C1` (single isomer, unassigned) [Compound 74] returned an IC50 of 13100 nM.

The compound `C=CC(=O)N1CCN2c3c(cnc4cc(-c5c(C)ccc6[nH]ncc56)c(Cl)cc34)N(CCN(C)C)C[C@H]2C1` (single isomer, unassigned) [Compound 73] returned an IC50 of 57 nM.

`C=CC(=O)N1CCN2c3c(cnc4cc(-c5c(C)ccc6[nH]ncc56)c(Cl)cc34)OC[C@H]2C1` (single isomer, unassigned) [Example 4] gave a 50% inhibitory concentration (IC50) of 1700 nM.

On to `C=CC(=O)N1CCN2c3c(cnc4c(F)c(-c5c(C)cccc5O)c(Cl)cc34)N(C)C(=O)[C@H]2C1` (single isomer, unassigned) [Compound 54], for which the IC50 turned out to be 40 nM.

Turning to `C=CC(=O)N1CCN2c3c(cnc4c(OC)c(-c5c(O)cccc5F)c(Cl)cc34)OC[C@H]2C1` (single isomer, unassigned) [Compound 23], the IC50 came out at 4200 nM.

In turn, `C=CC(=O)N1C[C@@H]2C(=O)Nc3cnc4c(F)c(-c5c(O)cccc5F)c(Cl)cc4c3N2C[C@H]1C` (single isomer, unassigned) [Compound 30] returned an IC50 of 4600 nM.

The compound `C=CC(=O)N1CCN2c3c(cnc4c(F)c(-c5c(F)cccc5CO)c(Cl)cc34)N(C)C(=O)[C@H]2C1` (single isomer, unassigned) [Compound 34] came in with an IC50 of 9800 nM.

Turning to `C=CC(=O)N1CCN2c3c(cnc4c(Cl)c(-c5c(O)cccc5F)c(F)cc34)N(C)C(=O)[C@H]2C1` (single isomer, unassigned) [Compound 80], the IC50 is 14700 nM.

Turning to `C=CC(=O)N1CCN2c3c(cnc4c(F)c(-c5c(C)ccc6[nH]c(=O)oc56)c(Cl)cc34)OC[C@H]2C1` (single isomer, unassigned) [Compound 48], the IC50 amounted to 3600 nM.

Turning to `C=CC(=O)N1CCN2c3c(cnc4c(F)c(-c5c(F)cccc5CO)c(Cl)cc34)N(C)C(=O)[C@H]2C1` (single isomer, unassigned) [Compound 35], the IC50 came to 133 nM.

`C=CC(=O)N1CCN2c3c(cnc4c(F)c(-c5c(O)cccc5F)c(Cl)cc34)OC[C@H]2C1` (single isomer, unassigned) [Example 8] registered an IC50 of 8500 nM.

Take `C=CC(=O)N1CCN2c3c(cnc4c(F)c(-c5c(O)ccc6ccccc56)c(Cl)cc34)N(C)C(=O)[C@H]2C1` (single isomer, unassigned) [Compound 56]: the IC50 is 56 nM.

The values are drawn from patent publication US10597405B2, “Chemical compounds” (ASTRAZENECA AB, priority 2017, dated 2020).
